By pest or weed control is commonly meant how far the test organism was held down. Higher therefore signals strong suppression.

Holding throughout (assay type): in vivo
Assay [1] concerns Lolium perenne (LOLPE). The assay is described as follows: Post-emergence herbicidal glasshouse test, Lolium perenne. Particulars: 312 h, rate 250 g/ha, evaluated after 13 days, scale 100 = total damage to plant, 0 = no damage. In short, it runs like this:
(§1)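 Seeds were sown in standard soil in pots and sprayed one day after sowing (pre-emergence) or after 8 days' growth (post-emergence). The spray was an aqueous solution from the active ingredient formulated in acetone/water (50:50) with 0.5% Tween 20. Plants grew at 24/16° C. day/night, 14 h light, 65% humidity, watered twice daily. Damage was scored after 13 days on a scale from 0 (no damage) to total damage.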

Assay [2] concerns Avena fatua (AVEFA). The assay can be described thus: Pre-emergence herbicidal glasshouse test, Avena fatua. The following applies: Avena fatua, 312 h, rate 250 g/ha, evaluated after 13 days, scale 100 = total damage to plant, 0 = no damage. An outline of the steps: as §1
The subject of assay [3] is Alopecurus myosuroides (ALOMY). The assay is described as follows: Pre-emergence herbicidal glasshouse test, Alopecurus myosuroides. Particulars: Alopecurus myosuroides, 312 h, rate 250 g/ha, evaluated after 13 days, scale 100 = total damage to plant, 0 = no damage. In short, it runs like this:
as §1

Assay [4] has as its system Avena fatua (AVEFA). The assay can be described thus: Post-emergence herbicidal glasshouse test, Avena fatua. The following applies: Avena fatua, 312 h, rate 250 g/ha, evaluated after 13 days, scale 100 = total damage to plant, 0 = no damage. In short, it runs like this: as §1
The subject of assay [5] is Echinochloa crus-galli (ECHCG). The assay is described as follows: Post-emergence herbicidal glasshouse test, Echinochloa crus-galli. Particulars: Echinochloa crus-galli, 312 h, rate 250 g/ha, evaluated after 13 days, scale 100 = total damage to plant, 0 = no damage. In short, it runs like this: as §1
Assay [6] has as its system Echinochloa crus-galli (ECHCG). The assay can be described thus: Pre-emergence herbicidal glasshouse test, Echinochloa crus-galli. The following applies: Echinochloa crus-galli, 312 h, rate 250 g/ha, evaluated after 13 days, scale 100 = total damage to plant, 0 = no damage. In short, it runs like this:
as §1

For assay [7], the system named is Lolium perenne (LOLPE). The assay is described as follows: Pre-emergence herbicidal glasshouse test, Lolium perenne. The following applies: 312 h, rate 250 g/ha, evaluated after 13 days, scale 100 = total damage to plant, 0 = no damage. In short, it runs like this:
as §1

The test system of assay [8] is Alopecurus myosuroides (ALOMY). The assay can be described thus: Post-emergence herbicidal glasshouse test, Alopecurus myosuroides. The following applies: Alopecurus myosuroides, 312 h, rate 250 g/ha, evaluated after 13 days, scale 100 = total damage to plant, 0 = no damage. In short, it runs like this: as §1

As to `CCc1cc(-c2cc(F)c(F)c(F)c2)ccc1C1=C(O)C(C)(CC)OC(C)(C)C1=O` (stereo not shown) [Compound A-120], the pest or weed control at 250 g/ha worked out at 100% in the assay on Lolium perenne (LOLPE) [1]; 40% with Avena fatua (AVEFA) [2]; 60% in assay [3]; 100% in the assay with Avena fatua (AVEFA) [4]; 100% in assay [5]; 70% in assay [6]. The figures for the pest or weed control at 250 g/ha (in the assay with Lolium perenne (LOLPE) [7]; in assay [8]) were 90% and 100%, respectively.

Take `CCc1cc(-c2cc(F)c(F)cc2F)ccc1C1=C(O)C(C)(CC)OC(C)(C)C1=O` (stereo not shown) [Compound A-122]: the pest or weed control at 250 g/ha in the assay on Lolium perenne (LOLPE) [1] stood at 70%; with Avena fatua (AVEFA) [2], 0%; in assay [3], 20%; with Avena fatua (AVEFA) [4] it was 30%; in assay [5] it was 70%; in assay [6], 10%. Also, the pest or weed control at 250 g/ha in the assay on Lolium perenne (LOLPE) [7] is 0%; in assay [8] it was 90%.

With `CCc1cc(-c2ccc(F)c(F)c2F)ccc1C1=C(O)C(C)(CC)OC(C)(C)C1=O` (stereo not shown) [Compound A-123], the pest or weed control at 250 g/ha with Lolium perenne (LOLPE) [1] is 80%; in the assay on Avena fatua (AVEFA) [2], 0%; in assay [3], 0%; in the assay on Avena fatua (AVEFA) [4], 80%; in assay [5] it was 90%; in assay [6], 0%. For the same compound, the pest or weed control at 250 g/ha in the assay on Lolium perenne (LOLPE) [7] came to 0%; in assay [8] it was 80%.

For the compound `CCc1cc(-c2ccc(F)c(F)c2)ccc1C1=C(O)C2(CCCC2)OC(C)(C)C1=O` [Compound A-125], the pest or weed control at 250 g/ha with Lolium perenne (LOLPE) [1] was found to be 30%; in the assay on Avena fatua (AVEFA) [2] it was 0%; in assay [3], 0%; in the assay on Avena fatua (AVEFA) [4], 10%; in assay [5], 70%; in assay [6] it was 0%. Also, the values for the pest or weed control at 250 g/ha (with Lolium perenne (LOLPE) [7]; in assay [8]) were 0% and 50%, respectively.

In the case of `CCc1cc(-c2cc(F)c(F)c(F)c2)ccc1C1=C(O)C2(CCCC2)OC(C)(C)C1=O` [Compound A-126], the pest or weed control at 250 g/ha in the assay on Lolium perenne (LOLPE) [1] was 40%; with Avena fatua (AVEFA) [2], 0%; in assay [3] it was 10%; in the assay on Avena fatua (AVEFA) [4], 20%; in assay [5], 70%; in assay [6], 10%. Also, the pest or weed control at 250 g/ha turned out to be 10% in the assay with Lolium perenne (LOLPE) [7] and 40% in assay [8].

As for `CCc1cc(-c2ccc(F)c(OC)c2)ccc1C1=C(O)C(C)(CC)OC(C)(CC)C1=O` (stereo not shown) [Compound A-128], the pest or weed control at 250 g/ha amounted to 60% in the assay with Lolium perenne (LOLPE) [1]; 0% with Avena fatua (AVEFA) [2]; 10% in assay [3]; 70% with Avena fatua (AVEFA) [4]; 80% in assay [5]; 40% in assay [6]. Further, the pest or weed control at 250 g/ha with Lolium perenne (LOLPE) [7] turned out to be 20%; in assay [8] it was 60%.

In the case of `CCc1cc(-c2ccc(F)c(F)c2)ccc1C1=C(O)C(C)(CC)OC(C)(CC)C1=O` (stereo not shown) [Compound A-129], the pest or weed control at 250 g/ha in the assay on Lolium perenne (LOLPE) [1] was found to be 80%; in the assay with Avena fatua (AVEFA) [2], 10%; in assay [3] it was 30%; in the assay on Avena fatua (AVEFA) [4], 70%; in assay [5], 90%; in assay [6], 90%. In addition, the pest or weed control at 250 g/ha turned out to be 30% in the assay on Lolium perenne (LOLPE) [7] and 90% in assay [8].

As to `CCc1cc(-c2cc(F)c(F)c(F)c2)ccc1C1=C(O)C(C)(CC)OC(C)(CC)C1=O` (stereo not shown) [Compound A-130], the pest or weed control at 250 g/ha in the assay on Lolium perenne (LOLPE) [1] was determined as 60%; with Avena fatua (AVEFA) [2], 10%; in assay [3], 50%; in the assay on Avena fatua (AVEFA) [4], 70%; in assay [5], 90%; in assay [6], 40%. For the same compound, the figures for the pest or weed control at 250 g/ha (in the assay with Lolium perenne (LOLPE) [7]; in assay [8]) were 60% and 90%, respectively.

As to `CCc1cc(-c2cc(F)c(F)cc2F)ccc1C1=C(O)C(C)(CC)OC(C)(CC)C1=O` (stereo not shown) [Compound A-132], the pest or weed control at 250 g/ha in the assay with Lolium perenne (LOLPE) [1] was 50%; in the assay with Avena fatua (AVEFA) [2] it was 0%; in assay [3] it was 20%; in the assay with Avena fatua (AVEFA) [4], 0%; in assay [5], 80%; in assay [6], 10%. Moreover, the pest or weed control at 250 g/ha stood at 20% with Lolium perenne (LOLPE) [7] and 60% in assay [8].

As to `CCc1cc(-c2ccc(F)c(F)c2F)ccc1C1=C(O)C(C)(CC)OC(C)(CC)C1=O` (stereo not shown) [Compound A-133], the pest or weed control at 250 g/ha was 50% with Lolium perenne (LOLPE) [1]; 0% with Avena fatua (AVEFA) [2]; 30% in assay [3]; 20% in the assay with Avena fatua (AVEFA) [4]; 60% in assay [5]; 0% in assay [6]. In addition, the pest or weed control at 250 g/ha in the assay with Lolium perenne (LOLPE) [7] is 30%; in assay [8] it was 60%.

Take `CC1(C)OC(C)(C)C(O)=C(c2ccc(-c3ccc(F)cc3)cc2Cl)C1=O` [Compound A-134]: the pest or weed control at 250 g/ha stood at 50% in the assay on Lolium perenne (LOLPE) [1]; 0% in the assay with Avena fatua (AVEFA) [2]; 40% in assay [3]; 20% with Avena fatua (AVEFA) [4]; 100% in assay [5]; 80% in assay [6]. Besides, the figures for the pest or weed control at 250 g/ha (with Lolium perenne (LOLPE) [7]; in assay [8]) were 30% and 70%, respectively.

Take `CC1(C)OC(C)(C)C(O)=C(c2ccc(-c3ccc(F)cc3)cc2OC(F)(F)F)C1=O` [Compound A-135]: the pest or weed control at 250 g/ha was 60% in the assay on Lolium perenne (LOLPE) [1]; 10% with Avena fatua (AVEFA) [2]; 30% in assay [3]; 10% in the assay on Avena fatua (AVEFA) [4]; 100% in assay [5]; 30% in assay [6]. Also, the pest or weed control at 250 g/ha with Lolium perenne (LOLPE) [7] came to 10%; in assay [8] it was 60%.

Regarding `CCc1cc(-c2ccc(F)c(OC)c2)ccc1C1=C(O)C(C)(C)SC(C)(C)C1=O` [Compound B-4], the pest or weed control at 250 g/ha came out at 50% in the assay with Lolium perenne (LOLPE) [1]; 0% in the assay on Avena fatua (AVEFA) [2]; 0% in assay [3]; 80% with Avena fatua (AVEFA) [4]; 60% in assay [5]; 0% in assay [6]. For the same compound, the pest or weed control at 250 g/ha in the assay with Lolium perenne (LOLPE) [7] turned out to be 0%; in assay [8], 40%.

With `CCc1cc(-c2ccc(F)c(F)c2)ccc1C1=C(O)C(C)(C)SC(C)(C)C1=O` [Compound B-5], the pest or weed control at 250 g/ha came to 60% in the assay on Lolium perenne (LOLPE) [1]; 20% in the assay on Avena fatua (AVEFA) [2]; 50% in assay [3]; 70% in the assay on Avena fatua (AVEFA) [4]; 60% in assay [5]; 0% in assay [6]. Moreover, the pest or weed control at 250 g/ha in the assay on Lolium perenne (LOLPE) [7] stood at 30%; in assay [8] it was 70%.

The values above are taken from patent US8895761B2, “4-phenylpyrane-3,5-diones, 4-phenylthiopyrane-3,5-diones and 2-phenylcyclohexane-1,3,5-triones as herbicides” (Syngenta Limited, priority 2007, dated 2014).
